Source: article PMC6155683, “Pharmacokinetics Studies of 12 Alkaloids in Rat Plasma after Oral Administration of Zuojin and Fan-Zuojin Formulas” (Molecules : A Journal of Synthetic Chemistry and Natural …, 2017)
Like-named read-outs stand apart in the source and are kept apart here.

How the values were obtained:
[1] = PK study of the 12 alkaloids in rat plasma after oral administration of ZJ and FZJ extract (LC–MS/MS); assay type: in vivo; conditions: for AUC(0-t) / AUC(0-inf) / Cmax / MRT last / MRT inf / half-life / Tmax / Tsec (time of the secondary peak in C–T curve) / Csec (drug concentration of the secondary peak in C–T curve): rat plasma; for AUC(0-t) / AUC(0-inf) / Cmax / MRT last / MRT inf / half-life / Csec (drug concentration of the secondary peak in C–T curve): mean ± SD, n = 6; for AUC(0-t): read-out: AUC0→t; for AUC(0-inf): read-out: AUC0→∞; for Cmax: read-out: Cmax; for MRT last: read-out: MRT0→t (converted); for MRT inf: read-out: MRT0→∞ (converted); for half-life: read-out: t1/2; for Tmax: read-out: Tmax (converted)
Procedure: The time schedule included 15 time-points and six rats were sampled at each time-point. All the rats were orally administered with ZJ extract (suspended in water) at a dose of 3.38 g/kg body weight (dosages of the 12 alkaloids were shown in Table S4), equivalent to crude drug dose of 12 g/kg body weight. Blood samples were collected from the suborbital vein of the rats at 10, 20, 30, 60, 90, 120, 180, 240, 300, 330, 360, 480, 720, 1440, 2160 min after administration, and centrifuged immediately at 5000 rpm for 10 min. The plasma samples were stored at −20 °C until analysis.
Similarly, the time schedule of other rats included 15 time-points and six rats were orally administered with FZJ extract at a dose of 3.76 g/kg body weight (also equivalent to crude drug dose of 12 g/kg body weight, Table S4). Blood samples were collected and treated as mentioned above in the PK study of ZJ extract.
PK parameters of the 12 alkaloids including AUC0→t, AUC0→∞, mean retention time (MRT0→t, MRT0→∞), and elimination half-life (t1/2) were calculated with non-compartmental method by DAS 2.0 software (Mathematical Pharmacology Professional Committee of China, Shanghai, China). Maximum plasma drug concentration (Cmax) and time to reach the maximum plasma drug concentration (Tmax) were observed directly from the detected C–T data. The results were expressed as arithmetic mean ± standard deviation (SD).

[2] = Stability of analytes in rat plasma under storage conditions; assay type: physicochemical; conditions: n = 6; for Stability RE, 3 freeze-thaw cycles / Stability RE, 30 days at −20 °C: rat plasma; for Stability RE, processed samples' stability: room temperature 24 h
Procedure: The stabilities of analytes in plasma were assessed by analyzing the QC samples at three concentration levels under the following storage conditions: after three freeze (−20 °C)-thaw (room temperature) cycles; stored at −20 °C for 30 days, and comparing the results with those of freshly prepared QC samples. Stabilities of the processed samples at room temperature for 24 h were also assessed.

[3] = Dose modified systemic exposure (AUC0→∞/D, Cmax/D)
Procedure: Because the alkaloids content in ZJ and FZJ were no longer linear with the proportion of CR and EF after extraction process, AUC0→∞/D (ratio of AUC0→∞ and dose) and Cmax/D (ratio of Cmax and dose) were calculated to estimate the dose modified systemic exposure levels of the 12 alkaloids (Table 3). […] Physicochemical properties of these alkaloids had been calculated in silico to predict their human colon adenocarcinoma cell (Caco-2) permeability according to the three-property based rule (3PRule). Polar surface area (PSA), logarithm of the n-octanol/water distribution coefficient (LogD), molecular weight (MW), hydrogen bond donors (HBD), hydrogen bond acceptors (HBA), number of free rotatable bonds (NRB) and molar solubility (S) of the alkaloids were retrieved from SciFinder® (American Chemical Society).

[4] = Two-compartment model fitting of C–T curves (DAS 2.0); assay type: in vivo, rat
Description: Double peaks in C–T curves were observed repeatedly in the PK study of ZJ and related TCM prescriptions, but explanations to the phenomenon were still ambiguous. Generally, possible reasons for the double peak phenomenon could be summarized as follows: (a) enterohepatic circulation; […] (c) irregular pattern of gastric emptying. […] Moreover, Tmax of the alkaloids after administration of ZJ extract were deferred from that of FZJ administration. […] It probably play a major role in the double peak phenomenon, since the GI motility can affect the drug absorption.

AUC(0-t) ([1]; 3.38 g/kg, oral ZJ extract) [ng·h/mL] | AUC(0-inf) ([1]; 3.38 g/kg, oral ZJ extract) [ng·h/mL] | Cmax ([1]; 3.38 g/kg, oral ZJ extract) [ng/mL] | MRT last ([1]; 3.38 g/kg, oral ZJ extract) [h] | MRT inf ([1]; 3.38 g/kg, oral ZJ extract) [h] | half-life ([1]; 3.38 g/kg, oral ZJ extract) [h] | Tmax ([1]; 3.38 g/kg, oral ZJ extract) [h] | Tsec (time of the secondary peak in C–T curve) ([1]; oral ZJ extract) [min] | Csec (drug concentration of the secondary peak in C–T curve) ([1]; oral ZJ extract) [ng/mL] | Stability RE, 3 freeze-thaw cycles ([2]; high QC concentration) [%] | Stability RE, 30 days at −20 °C ([2]; high QC concentration) [%] | Stability RE, 3 freeze-thaw cycles ([2]; low QC concentration) [%] | Stability RE, 30 days at −20 °C ([2]; low QC concentration) [%] | Stability RE, 3 freeze-thaw cycles ([2]; medium QC concentration) [%] | Stability RE, 30 days at −20 °C ([2]; medium QC concentration) [%] | Stability RE, processed samples' stability ([2]; high QC concentration) [%] | Stability RE, processed samples' stability ([2]; low QC concentration) [%] | Stability RE, processed samples' stability ([2]; medium QC concentration) [%] | AUC0→∞/D (ratio of AUC0→∞ and dose) ([3]; oral ZJ extract) | Cmax/D (ratio of Cmax and dose) ([3]; oral ZJ extract) | SMILES | further results
24.7 ± 3.9 | 27 ± 2.23 | 2.46 ± 1.17 | 10.1 | 13.5 | 8.93 ± 2.65 | 5 | 90 | 2.42 ± 0.89 | −12.48 | −14.51 | 6.73 | 6.72 | 7.48 | 9.66 | 10.05 | −3.71 | 10.68 | 44.44 | 3.98 | O=c1c2c3c(ccc2cc2n1CCc1cc4c(cc1-2)OCO4)OCO3 [8-oxocoptisine] | plasma concentrations at most time points ([1]; oral FZJ extract): below the LLOQ
14.3 ± 2.32 | 16.6 ± 3.22 | 2.38 ± 1.14 | 7.51 | 12.3 | 9.88 ± 4.57 | 1.5 | 300 | 1.85 ± 0.99 | −8.93 | −2.71 | −14.18 | −13.41 | 0.37 | 0.36 | −7.73 | −7.14 | 9.35 | 97.25 | 13.92 | COc1cc2c(cc1OC)-c1cc3ccc4c(c3c(=O)n1CC2)OCO4 [8-oxoepiberberine] | plasma concentrations at most time points ([1]; oral FZJ extract): below the LLOQ
45.1 ± 7.46 | 47.3 ± 7.36 | 10.3 ± 5.45 | 6.72 | 8.55 | 9.92 ± 2.06 | 1.5 | 300 | 9.03 ± 4.31 | −2.29 | −2.68 | −1.98 | 15.65 | 3.89 | −11.86 | −10.59 | 13.85 | −6.31 | 1688.21 | 369.29 | COc1cc2c(cc1OC)C(=O)NCC2 [corydaldine] | AUC(0-t) ([1]; 3.76 g/kg, oral FZJ extract): 2.86 ± 0.35 ng·h/mL; AUC(0-inf) ([1]; 3.76 g/kg, oral FZJ extract): 3.1 ± 0.46 ng·h/mL; Cmax ([1]; 3.76 g/kg, oral FZJ extract): 1.73 ± 0.58 ng/mL; MRT last ([1]; 3.76 g/kg, oral FZJ extract): 2.85 h; MRT inf ([1]; 3.76 g/kg, oral FZJ extract): 3.99 h; half-life ([1]; 3.76 g/kg, oral FZJ extract): 3.89 ± 1.29 h; Tmax ([1]; 3.76 g/kg, oral FZJ extract): 0.5 h; AUC0→∞/D (ratio of AUC0→∞ and dose) ([3]; oral FZJ extract): 310.00; Cmax/D (ratio of Cmax and dose) ([3]; oral FZJ extract): 173.00; AIC (Akaike's information criterion method), two-compartment model fitting ([4]; oral FZJ extract): 3.947 ± 8.187; r^2 (correlation coefficient method), two-compartment model fitting ([4]; oral FZJ extract): 0.805 ± 0.066; AIC (Akaike's information criterion method), two-compartment model fitting ([4]; oral ZJ extract): 85.431 ± 9.718; r^2 (correlation coefficient method), two-compartment model fitting ([4]; oral ZJ extract): 0.243 ± 0.267
